Experimental findings from paper PMC11073428, “The activity of pyrazolo[4,3-e][1,2,4]triazine and pyrazolo[4,3-e]tetrazolo[1,5-b][1,2,4]triazine sulphonamide derivatives in monolayer and spheroid breast cancer cell cultures” (Journal of Enzyme Inhibition and Medicinal Chemistry, 2024) are described below.

Data set [1] deals with caspase 10 in MDA-MB-231 cells. The experiment in a line: Activity of caspase 10, MDA-MB-231. It is filed as cell-based, human. The conditions noted are these: 24 h. How it is done:
(§1) MCF-7 and MDA-MB-231 cells were plated in six-well plates at density 1 × 10^6 and cultured in DMEM for 24 h. […] Then to identify the involvement of caspase family in inducing apoptosis, cells were pre-treated with Z-VAD-FMK (100 µM) 2 h before adding compounds[28]. The activation of caspases 9, 10, and 3/7 was detected as described before.

In data set [2] the test system is MCF-7 breast cancer cells. The experiment in a line: Autophagy Assay, Red, flow cytometry, MCF-7. The class given is cell-based, human. How it is done: The effect of novel compound 3b at 0.25 µM and 0.5 µM concentration on the induction of autophagy in MCF-7 and MDA-MB-231 pre-treated 1 h with or not autophagy inhibitor 3-MA for 1 h (3-methyladenine, Sigma-Aldrich, St. Louis, MO) at 1 mM concentration[29] was assessed by ICT’s Autophagy Assay, Red using a flow cytometer. The test was performed as previously. Briefly, cells were washed with PBS and suspended in 490 µL of PBS. To each probe, 10 µL of diluted Autophagy Probe, Red solution was added. Prepared samples were incubated at 37 °C for 60 min. Following incubation, cells were suspended in diluted cellular assay buffer and centrifuged. Then, supernatant was removed, and cells were resuspended in diluted cellular assay buffer and centrifuged again. This step was repeated three times. Finally, cell pellet was resuspended in 0.5 mL of diluted cellular assay buffer. The analysis was performed with a flow cytometer (excitation/emission 590 nm/620 nm).
For orientation: A flow cytometer gives signals particle by particle.

For the next data set, the system named is Bax in MCF-7 cells. The experiment in a line: Anti-Bax antibody flow cytometry, MCF-7. It is filed as cell-based, human. The conditions noted are these: 24 h. As to the method: (§2) To evaluate the molecular mechanism of induction of apoptosis of tested compounds, the level of p53, NF-κB, mTOR, Bax, and beclin-1 was measured using appropriate antibody according to the manufacturer’s instruction. In brief, tryspinised cells were centrifuged, then supernatant was discarded, and cells were suspended in 4% FA (formaldehyde). Prepared samples were incubated 15 min at RT. Following incubation, the 2.5 mL PBS was added to each sample and centrifuged. Then, supernatant was discarded, and cells were resuspended in 90% ice-cold methanol to perform permeabilisation and left for 1 h in ice. To remove methanol, cells were rinsed with excess PBS by centrifugation. Following centrifugation, the supernatant was discarded. Then, cells were resuspended in 100 µL of appropriate diluted (1:100 in PBS) antibody conjugate (p53 (7F5) Rabbit mAb – Alexa Fluor 488 Conjugate #5429 Cell Signalling Technology, Danvers, MA; NF-κB p65 (D14E12) XP Rabbit mAb – Alexa Fluor 647 Conjugate #8801 Cell Signalling Technology, Danvers, MA; mTOR (7C10) Rabbit mAB – Alexa Fluor 647 #5048 Cell Signalling Technology, Danvers, MA; FITC Anti-Bax antibody (T22-A) #ab139543, Abcam, Cambridge, UK) and incubated 1 h in the dark at RT. Afterwards, cells were washed by centrifugation in 2 mL of incubation buffer. Finally, supernatant was removed and 300 µL PBS was added to each sample and pipetted. The analysis was performed by flow cytometry (BD FACSCanto II, Becton Dickinson Biosciences Systems, San Jose, CA) using FACSDiva software ver. 6.1.3.

The test system of another data set is mTOR in MDA-MB-231 cells. The experiment in a line: Anti-mTOR antibody flow cytometry, MDA-MB-231. The class given is cell-based, human. The conditions noted are these: MDA-MB-231, 0.25 µM and 0.5 µM, 24 h. How it is done: as §2, with “The analysis was performed by flow cytometry (BD FACSCanto II, Becton Dickinson Biosciences Systems, San Jose, CA) using FACSDiva software ver. 6.1.3.” left out

Data set [3] deals with caspase 9 in MDA-MB-231 cells. The experiment in a line: Activity of caspase 9, MDA-MB-231. The class given is cell-based, human. The conditions noted are these: MDA-MB-231, 0.5 µM, 24 h. How it is done:
as §1

Data set [4] has as its system caspase 10 in MCF-7 cells. Briefly: Activity of caspase 10, MCF-7. It is filed as cell-based, human. The conditions noted are these: 24 h. How it is done:
as §1

For the next data set, the system named is ROS in MCF-7 cells. The experiment in a line: Total ROS activity, flow cytometry, MCF-7. It is filed as cell-based, human. The conditions noted are these: for cells that generated ROS: 24 h. How it is done:
In brief, cells were washed two times with cold PBS solution and incubated in a solution of ROS Green dye in Assay Buffer and incubated for 1 h in optimal cell growth parameters, protected from light. After incubation, cells were washed with assay buffer. Subsequently, fluorescence emission intensities at 490 nm excitation and 520 nm emission were recorded in 500 μL assay buffer using flow cytometer BD FACSCanto II flow cytometer and FACSDiva software (BD Biosciences Systems, San Jose, CA).

The test system of the next data set is MDA-MB-231 spheroids. The experiment in a line: 3D spheroid culture, MDA-MB-231. It is filed as cell-based, human. The conditions noted are these: 0.25 µM and 0.5 µM. How it is done:
The 3D cell culture was carried out with 6-Well Bio-Assembler Kit in accordance with the manufacturer’s instructions (Greiner Bio-One GmbH, Frickenhausen, Germany). First, MCF-7 and MDA-MB-231 were cultured in 2D using procedure and supplied to 80% confluency and treated with nanoshuttle at concentration of 1 µL/10 000 cell and incubated overnight. Following incubation, the medium was removed, and the cells were detached by trypsin–EDTA solution and resuspended in DMEM. The cells were counted using Scepter 2.0 Handheld Automated Cell Counter (Merck, Darmstadt, Germany) and plated at the concentration 1 × 10^6 cells per well in six-well plate. Then, cells were gently tilted in the flask to evenly distribute the nanoparticle and incubated (37 °C, 5% CO2, 95–98% humidity) for 1 h with magnet on the top of the plate. The cells self-assemble to spheroids. The obtained 3D cell culture was incubated until analysis.
The visualisation of the morphological changes in 3D cell culture of MCF-7 and MDA-MB-231 was evaluated using microscope (Nikon Eclipse Ti, Tokyo, Japan).
The mean ± standard deviation (SD) for all data is presented. One-way and two-way analysis of variance (ANOVA) was conducted followed by Dunnett’s test. GraphPad 8.0.1 Prism software (GraphPad Software, San Diego, CA) was used for calculation. The analysis of spheroids area was carried out using ImageJ software from the NIH (Bethesda, MD).

Data set [5] has as its system MCF-7 breast cancer cells. Briefly: MTT viability assay, MCF-7. Background: Formazan colour is commonly taken as a measure of viable cells.
Description: Following 24-h incubation with tested compounds, the medium was discarded from the cell cultures. Then, into each well with cells was added 1 mL of PBS and 50 µL of MTT solution (5 mg per mL). Cells were incubated at 37 °C and 5% CO2 in humidified atmosphere for a defined time appropriate for each cell line. After incubation, the solution above the cells was removed and obtained purple formazan crystals were dissolved in 1 mL DMSO. The absorbance was read at OD = 570 nm on Evolution 201 Spectrophotometer (Thermo Scientific, Waltham, MA).
For data set [6], the system named is caspase 3/7 in MCF-7 cells. The experiment in a line: Activity of caspase 3/7, MCF-7. The conditions noted are these: MCF-7, 24 h; cell line does not express caspase 3. It is filed as cell-based, human. How it is done:
as §1

In data set [7] the test system is NF-κB in MDA-MB-231 cells. The experiment in a line: Anti-NF-κB antibody flow cytometry, MDA-MB-231. It is filed as cell-based, human. The conditions noted are these: 24 h. How it is done:
as §2, with “The analysis was performed by flow cytometry (BD FACSCanto II, Becton Dickinson Biosciences Systems, San Jose, CA) using FACSDiva software ver. 6.1.3.” left out

The melting point is the temperature, or range, at which the solid turns liquid. What is called IC50 is the concentration that inhibits the measured activity by half. `Cc1nn(-c2ccc(S(=O)(=O)N[C@@H](CO)Cc3ccccc3)cc2)c2nn3nnnc3nc12` [Compound 3b, (R)-N-(1-hydroxy-3-phenylpropan-2-yl)-4-(7-methyl-5H-pyrazolo[4,3-e]tetrazolo[1,5-b][1,2,4]triazin-6-yl)benzenesulfonamide] gave a melting point of 170 to 172 °C. Moreover, the “cells with active caspase 10” value in [1] (MDA-MB-231, 0.25 µM) was 21.2 ± 1.4%. Also, the “cells with active caspase 10” value in [1] (MDA-MB-231, 0.5 µM) is 50.8 ± 3.8%. Further, the autophagic cells in data set [2] (MCF-7, 0.5 µM, 24 h) came to 30 ± 2.1%. Also, the “autophagic cells with 3-MA relative to 3b alone (in words)” value in data set [2] (MCF-7, 3b 0.5 µM + 3MA vs 3b 0.5 µM) is “one and a half times less autophagic cells”. For the same molecule, the “cells with active Bax” value with Bax in MCF-7 cells (MCF-7, 0.25 µM) was found to be 46.4 ± 6.6%. Besides, the “cells with active Bax” value with Bax in MCF-7 cells (MCF-7, higher concentration (0.5 µM)) is 63.0 ± 1.6%. Further, the “effect on cells with active mTOR (in words)” value with mTOR in MDA-MB-231 cells was “decrease in the number of cells with active mTOR”. The “cells with active caspase 9” value in data set [3] came to 55.9 ± 1.2%. Further, the “cells with active caspase 10” value in data set [4] (MCF-7, 0.25 µM) was determined as 12.9 ± 0.8%. For the same molecule, in data set [4] (MCF-7, 0.5 µM), the “cells with active caspase 10” value turned out to be 70.8 ± 1.1%. In addition, the “cells that generated ROS” value in the data set on ROS in MCF-7 cells (MCF-7, 0.25 µM) turned out to be 19.8 ± 2.2%. Besides, in the data set on ROS in MCF-7 cells (MCF-7, 0.5 µM), the “increase of ROS level compared to control” value was 12 times and the “cells that generated ROS” value was 27.5 ± 1.3%. Also, in the data set with MDA-MB-231 spheroids, the “effect on spheroid formation (in words)” value is “slower formation of spheroids compared to untreated cells”. In addition, the IC50 in data set [5] (Homo sapiens, MCF7, 24 h, read-out: Cytotoxicity IC50 MCF-7) was 250 ± 70 nM. For the same molecule, the “times stronger than the corresponding sulphonyl derivative (2a or 2b), MCF-7” value in data set [5] (ratio of cytotoxicity, 3a vs 2a, 3b vs 2b) is recorded as 22 times. In addition, in data set [6], the “effect on executive caspase 7 (in words)” value is recorded as “increase in activity of executive caspase 7”. In [7] (MDA-MB-231, 0.25 µM), the “cells with active NF-κB” value stood at 94.8 ± 0.6%. Moreover, in [7] (MDA-MB-231, 0.5 µM), the “cells with active NF-κB” value turned out to be 89.6 ± 4.1%.
